The nature of data set [1]: Water solubility stated in background. The following applies: background statement.
Data set [2] in a line: Solubility of series A to E drugs in water and 10% Soluplus solution. Format: physicochemical. The settings on record: for Solubility in 10% Soluplus: 10% Soluplus solution. The text has this:
The solubilities of the poorly soluble chain-like drugs of the series A to E according to the present disclosure in water and a 10% Soluplus solution are shown in Table 2.

Data set [3] in a line: Solubility of compound CPD4 in different solvents or carriers (HPLC of supernatant). It is filed as physicochemical. How it is done:
Taking the symmetric diselenoline molecule CPD4 from series A prepared according to Example 1 as an example, solubilities in different solvents and carriers were measured separately. A test method was conducted as follows: 1 mg of the compound was added into 1 mL of different solvents or carriers separately, ultrasonicated in a water bath for 10 min to fully dissolve the compound to obtain a mixture, and the mixture was stirred at ambient temperature for 12 h, and centrifuged, and a compound concentration in a resulting supernatant was determined by HPLC.

Setting [4] is: Sodium acetate buffer (pH = 4.5).

≈ marks a conversion by molar mass, not a printed value. Bounds are passed on as bounds.

Usually Solubility stands for how much of the substance goes into solution per volume.

Turning to `COc1ccc2[se]n(CCCCCCn3[se]c4ccc(O)cc4c3=O)c(=O)c2c1`, the water solubility in data set [1] turned out to be 3.3 µg/mL (≈ 6.29 µM).

`O=c1c2ccccc2[se]n1CCCn1[se]c2ccccc2c1=O` [CPD1]: in data set [2], the “Solubility in 10% Soluplus” value was determined as 200 µg/mL (≈ 458 µM) and the Solubility in water turned out to be 4 µg/mL (≈ 9.17 µM).

Take `O=c1c2ccccc2[se]n1CCCCn1[se]c2ccccc2c1=O` [CPD2]: in data set [2], the “Solubility in 10% Soluplus” value worked out at 200 µg/mL (≈ 444 µM) and the Solubility in water came to 1 µg/mL (≈ 2.22 µM).

For the molecule `O=c1c2ccccc2[se]n1CCCCCn1[se]c2ccccc2c1=O` [CPD3], in data set [2], the “Solubility in 10% Soluplus” value came out at 300 µg/mL (≈ 646 µM) and the Solubility in water was determined as 1 µg/mL (≈ 2.15 µM).

In the case of `O=c1c2ccccc2[se]n1CCCCCCn1[se]c2ccccc2c1=O` [CPD4], the “Solubility in 10% Soluplus” value in data set [2] was 500 µg/mL (≈ 1050 µM). In data set [2], the Solubility in water worked out at 1 µg/mL (≈ 2.09 µM). Further, the Dissolution multiple in data set [3] (Acetone) turned out to be 275; in data set [3] (Acetonitrile), 263; in data set [3] (DMF), 10819; in data set [3] (DMSO) it was 21131; in data set [3] (Dichloromethane) it was 1981; in data set [3] (Ethanol), 800. The Dissolution multiple came to 150 in data set [3] (Ethyl acetate); 1.38 in data set [3] (Hydrochloric acid (pH = 1.2)); 613 in data set [3] (Isopropanol); 46 in data set [3] (Liposome: Cholesterol); 40 in data set [3] (Liposome: Lecithin); 881 in data set [3] (Methanol). Further, the Dissolution multiple in data set [3] (PBS (pH = 7.4)) was 0.5; in data set [3] (setting [4]), 0.81; in data set [3] (Solid adjuvant F68), 8.1; in data set [3] (Solid adjuvant F127), 61; in data set [3] (Solid adjuvant HP-β-CD), 38; in data set [3] (Solid adjuvant PEG2000), 4.4. Further, the Dissolution multiple in data set [3] (Solid adjuvant PEG4000) amounted to 5; in data set [3] (Solid adjuvant PEG6000), 3.8; in data set [3] (Solid adjuvant SBE-β-CD), 44; in data set [3] (Soluplus) it was 400; in data set [3] (n-Octanol), 662. The Solubility in data set [3] (Acetone) amounted to 440 ± 40 µg/mL (≈ 920 µM); in data set [3] (Acetonitrile), 420 ± 5 µg/mL (≈ 878 µM); in data set [3] (DMF), 17310 ± 320 µg/mL (≈ 36200 µM); in data set [3] (DMSO), 33810 ± 700 µg/mL (≈ 70700 µM); in data set [3] (Dichloromethane) it was 3170 ± 160 µg/mL (≈ 6630 µM); in data set [3] (Ethanol) it was 1280 ± 40 µg/mL (≈ 2680 µM). Further, the Solubility was 240 ± 20 µg/mL (≈ 502 µM) in data set [3] (Ethyl acetate); 2.2 ± 0.26 µg/mL (≈ 4.6 µM) in data set [3] (Hydrochloric acid (pH = 1.2)); 980 ± 60 µg/mL (≈ 2050 µM) in data set [3] (Isopropanol); 60 ± 1 µg/mL (≈ 125 µM) in data set [3] (Liposome: Cholesterol); 40 ± 5 µg/mL (≈ 83.6 µM) in data set [3] (Liposome: Lecithin); 1410 ± 130 µg/mL (≈ 2950 µM) in data set [3] (Methanol). The Solubility is 0.8 ± 0.15 µg/mL (≈ 1.67 µM) in data set [3] (PBS (pH = 7.4)); 1.3 ± 0.47 µg/mL (≈ 2.72 µM) in data set [3] (setting [4]); 13 ± 3 µg/mL in data set [3] (Solid adjuvant F68); 98 ± 8 µg/mL in data set [3] (Solid adjuvant F127); 60 ± 3 µg/mL in data set [3] (Solid adjuvant HP-β-CD); 7 ± 2 µg/mL in data set [3] (Solid adjuvant PEG2000). The Solubility turned out to be 8 ± 1 µg/mL in data set [3] (Solid adjuvant PEG4000); 6 ± 1 µg/mL in data set [3] (Solid adjuvant PEG6000); 71 ± 4 µg/mL in data set [3] (Solid adjuvant SBE-β-CD); 515 ± 8 µg/mL (≈ 1080 µM) in data set [3] (Soluplus); 1060 ± 80 µg/mL (≈ 2220 µM) in data set [3] (n-Octanol); 1.6 ± 0.05 µg/mL (≈ 3.35 µM) in data set [3] (water).

Regarding `O=c1c2ccccc2[se]n1CCCCCCCn1[se]c2ccccc2c1=O` [CPD5], in data set [2], the “Solubility in 10% Soluplus” value is 500 µg/mL (≈ 1020 µM) and the Solubility in water was 1 µg/mL (≈ 2.03 µM).

Take `O=c1c2cccc(F)c2[se]n1CCCCn1[se]c2c(F)cccc2c1=O` [CPD7]: in data set [2], the “Solubility in 10% Soluplus” value stood at 250 µg/mL (≈ 514 µM) and the Solubility in water stood at 2 µg/mL (≈ 4.11 µM).

As for `O=c1c2cccc(F)c2[se]n1CCCCCn1[se]c2c(F)cccc2c1=O` [CPD8], in data set [2], the “Solubility in 10% Soluplus” value came to 300 µg/mL (≈ 600 µM) and the Solubility in water came to 1 µg/mL (≈ 2 µM).

As for `O=c1c2cccc(F)c2[se]n1CCCCCCn1[se]c2c(F)cccc2c1=O` [CPD9], in data set [2], the “Solubility in 10% Soluplus” value amounted to 800 µg/mL (≈ 1560 µM) and the Solubility in water was found to be 1 µg/mL (≈ 1.94 µM).

Take `O=c1c2cccc(F)c2[se]n1CCCCCCCn1[se]c2c(F)cccc2c1=O` [CPD10]: in data set [2], the “Solubility in 10% Soluplus” value is 600 µg/mL (≈ 1140 µM) and the Solubility in water amounted to 1 µg/mL (≈ 1.89 µM).

In the case of `COc1ccc2[se]n(CCCn3[se]c4ccc(O)cc4c3=O)c(=O)c2c1` [CPD11], in data set [2], the “Solubility in 10% Soluplus” value is more than 1000 µg/mL and the Solubility in water was determined as 15 µg/mL (≈ 31.1 µM).

For `COc1ccc2[se]n(CCCCCn3[se]c4ccc(O)cc4c3=O)c(=O)c2c1` [CPD13], in data set [2], the “Solubility in 10% Soluplus” value is more than 1000 µg/mL and the Solubility in water worked out at 10 µg/mL (≈ 19.6 µM).

With `COc1ccc2[se]n(CCCCCCCn3[se]c4ccc(O)cc4c3=O)c(=O)c2c1` [CPD15], in data set [2], the “Solubility in 10% Soluplus” value is more than 1000 µg/mL and the Solubility in water came to 10 µg/mL (≈ 18.6 µM).

With `COc1ccc2[se]n(CCCCn3[se]c4ccc(OCCCN=[N+]=[N-])cc4c3=O)c(=O)c2c1` [CPD17], in data set [2], the “Solubility in 10% Soluplus” value is more than 1000 µg/mL and the Solubility in water was less than 10 µg/mL.

Take `COc1ccc2[se]n(CCCCCn3[se]c4ccc(OCCCN=[N+]=[N-])cc4c3=O)c(=O)c2c1` [CPD18]: in data set [2], the “Solubility in 10% Soluplus” value was more than 1000 µg/mL and the Solubility in water was less than 10 µg/mL.

Regarding `COc1ccc2[se]n(CCCCCCn3[se]c4ccc(OCCCN=[N+]=[N-])cc4c3=O)c(=O)c2c1` [CPD19], in data set [2], the “Solubility in 10% Soluplus” value was more than 1000 µg/mL and the Solubility in water was less than 10 µg/mL.

On to `COc1ccc2[se]n(CCCCCCCn3[se]c4ccc(OCCCN=[N+]=[N-])cc4c3=O)c(=O)c2c1` [CPD20], for which, in data set [2], the “Solubility in 10% Soluplus” value was more than 1000 µg/mL and the Solubility in water is less than 10 µg/mL.

Take `COc1ccc2[se]n(CCCn3[se]c4ccc(OCCCN(C)C)cc4c3=O)c(=O)c2c1` [CPD21]: in data set [2], the “Solubility in 10% Soluplus” value is more than 1000 µg/mL and the Solubility in water is less than 10 µg/mL.

`COc1ccc2[se]n(CCCCn3[se]c4ccc(OCCCN(C)C)cc4c3=O)c(=O)c2c1` [CPD22]: in data set [2], the “Solubility in 10% Soluplus” value is more than 1000 µg/mL and the Solubility in water was less than 10 µg/mL.

With `COc1ccc2[se]n(CCCCCn3[se]c4ccc(OCCCN(C)C)cc4c3=O)c(=O)c2c1` [CPD23], in data set [2], the “Solubility in 10% Soluplus” value is more than 1000 µg/mL and the Solubility in water is less than 10 µg/mL.

As for `COc1ccc2[se]n(CCCCCCn3[se]c4ccc(OCCCN(C)C)cc4c3=O)c(=O)c2c1` [CPD24], in data set [2], the “Solubility in 10% Soluplus” value is more than 1000 µg/mL and the Solubility in water was less than 10 µg/mL.

On to `COc1ccc2[se]n(CCCCCCCn3[se]c4ccc(OCCCN(C)C)cc4c3=O)c(=O)c2c1` [CPD25], for which, in data set [2], the “Solubility in 10% Soluplus” value is more than 1000 µg/mL and the Solubility in water was less than 10 µg/mL.

For `COc1ccc2[se]n(CCCn3[se]c4ccc(OCCCn5nnnc5C)cc4c3=O)c(=O)c2c1` [CPD26], in data set [2], the “Solubility in 10% Soluplus” value is more than 1000 µg/mL and the Solubility in water was less than 10 µg/mL.

Consider `COc1ccc2[se]n(CCCCn3[se]c4ccc(OCCCn5nnnc5C)cc4c3=O)c(=O)c2c1` [CPD27], for which, in data set [2], the “Solubility in 10% Soluplus” value was more than 1000 µg/mL and the Solubility in water was less than 10 µg/mL.

Regarding `COc1ccc2[se]n(CCCCCn3[se]c4ccc(OCCCn5nnnc5C)cc4c3=O)c(=O)c2c1` [CPD28], in data set [2], the “Solubility in 10% Soluplus” value was more than 1000 µg/mL and the Solubility in water was less than 10 µg/mL.

`COc1ccc2[se]n(CCCCCCn3[se]c4ccc(OCCCn5nnnc5C)cc4c3=O)c(=O)c2c1` [CPD29]: in data set [2], the “Solubility in 10% Soluplus” value was more than 1000 µg/mL and the Solubility in water is less than 10 µg/mL.

Regarding `COc1ccc2[se]n(CCCCCCCn3[se]c4ccc(OCCCn5nnnc5C)cc4c3=O)c(=O)c2c1` [CPD30], in data set [2], the “Solubility in 10% Soluplus” value is more than 1000 µg/mL and the Solubility in water is less than 10 µg/mL.

Turning to `COc1ccc2[se]n(Cc3cccc(Cn4[se]c5ccc(O)cc5c4=O)c3)c(=O)c2c1` [CPD31], in data set [2], the “Solubility in 10% Soluplus” value was more than 1000 µg/mL and the Solubility in water was less than 10 µg/mL.

On to `COc1ccc2[se]n(Cc3cccc(Cn4[se]c5ccc(OCCCN=[N+]=[N-])cc5c4=O)c3)c(=O)c2c1` [CPD32], for which, in data set [2], the “Solubility in 10% Soluplus” value is more than 1000 µg/mL and the Solubility in water is less than 10 µg/mL.

On to `COc1ccc2[se]n(Cc3cccc(Cn4[se]c5ccc(OCCCN(C)C)cc5c4=O)c3)c(=O)c2c1` [CPD33], for which, in data set [2], the “Solubility in 10% Soluplus” value is more than 1000 µg/mL and the Solubility in water was less than 10 µg/mL.

For `COc1ccc2[se]n(Cc3cccc(Cn4[se]c5ccc(OCCCn6nnnc6C)cc5c4=O)c3)c(=O)c2c1` [CPD34], in data set [2], the “Solubility in 10% Soluplus” value was more than 1000 µg/mL and the Solubility in water is less than 10 µg/mL.

Regarding `O=C(CCCCCn1[se]c2ccccc2c1=O)Oc1ccccc1` [CPD36], in data set [2], the “Solubility in 10% Soluplus” value was more than 1000 µg/mL and the Solubility in water was less than 10 µg/mL.

With `O=C(CCCCCn1[se]c2ccccc2c1=O)Nc1ccccc1` [CPD37], in data set [2], the “Solubility in 10% Soluplus” value is more than 1000 µg/mL and the Solubility in water is less than 10 µg/mL.

Consider `O=C(NCCCCCn1[se]c2ccccc2c1=O)c1ccccc1` [CPD38], for which, in data set [2], the “Solubility in 10% Soluplus” value was more than 1000 µg/mL and the Solubility in water was less than 10 µg/mL.

These data come from US20240173255A1, “Polymeric Micelle Coated with Chain-Like Poorly Soluble Drug, Preparation Method and Application” (Hangzhou Hanjing Biotechnology Co., Ltd, priority 2021, published 2024).
